Values after ≈ are worked out from the molar mass of the structure shown.
Columns and labels:
Enterococcus spp. = experiment: minimum inhibitory concentration (MIC)
Experimental: (§1)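 Broth microdilution MIC (Sensititre BOPO7F bovine plate, CLSI methods) of 19 antimicrobials against field isolates of P. multocida, M. haemolytica, H. somni (deep nasopharyngeal swabs) and E. coli, Enterococcus spp. (rectal swabs) from weaned dairy heifers. Incubation 16-24 h at 35 C. MIC is the lowest concentration preventing visible growth. Values with <= or > lie at the tested range limits. Trimethoprim-sulfamethoxazole is given as the trimethoprim component of a 1:19 mixture.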

Mannheimia haemolytica = experiment: minimum inhibitory concentration (MIC)
Experimental: as §1

CS(=O)(=O)c1ccc([C@@H](O)[C@@H](CF)NC(=O)C(Cl)Cl)cc1 [Florfenicol]
minimum inhibitory concentration [µg/mL]
Settings | Enterococcus spp. | Mannheimia haemolytica
isolate (source animal id): 2 | 2 (≈ 5.58 µM) | –
isolate (source animal id): 8 | – | 1 (≈ 2.79 µM)
isolate (source animal id): 13 | – | 1 (≈ 2.79 µM)
isolate (source animal id): 18 | – | 2 (≈ 5.58 µM)
isolate (source animal id): 21 | – | 2 (≈ 5.58 µM)
isolate (source animal id): 25 | – | 2 (≈ 5.58 µM)
isolate (source animal id): 27 | – | 1 (≈ 2.79 µM)
isolate (source animal id): 28 | – | 1 (≈ 2.79 µM)
isolate (source animal id): 30 | – | 1 (≈ 2.79 µM)
isolate (source animal id): 31 | – | 1 (≈ 2.79 µM)
isolate (source animal id): 32 | – | 1 (≈ 2.79 µM)
isolate (source animal id): 34 | – | 1 (≈ 2.79 µM)
isolate (source animal id): 35 | > 8 | –
isolate (source animal id): 36 | – | 1 (≈ 2.79 µM)
isolate (source animal id): 37 | – | 1 (≈ 2.79 µM)
isolate (source animal id): 40 | – | 1 (≈ 2.79 µM)
isolate (source animal id): 41 | – | 1 (≈ 2.79 µM)
isolate (source animal id): 42 | 2 (≈ 5.58 µM) | –
isolate (source animal id): 43 | – | 2 (≈ 5.58 µM)
isolate (source animal id): 44 | 2 (≈ 5.58 µM) | –
isolate (source animal id): 46 | – | 1 (≈ 2.79 µM)
isolate (source animal id): 49 | – | 1 (≈ 2.79 µM)
isolate (source animal id): 50 | – | 1 (≈ 2.79 µM)
isolate (source animal id): 51 | – | 1 (≈ 2.79 µM)
isolate (source animal id): 52 | – | 1 (≈ 2.79 µM)
isolate (source animal id): 53 | – | 2 (≈ 5.58 µM)
isolate (source animal id): 55 | – | 1 (≈ 2.79 µM)
isolate (source animal id): 56 | – | 1 (≈ 2.79 µM)
isolate (source animal id): 57 | – | > 8
isolate (source animal id): 79 | 4 (≈ 11.2 µM) | –
isolate (source animal id): 88 | 2 (≈ 5.58 µM) | –
isolate (source animal id): 91 | 2 (≈ 5.58 µM) | –
isolate (source animal id): 92 | 2 (≈ 5.58 µM) | –
isolate (source animal id): 100 | – | 2 (≈ 5.58 µM)
isolate (source animal id): 103 | – | 1 (≈ 2.79 µM)
isolate (source animal id): 107 | – | 2 (≈ 5.58 µM)
isolate (source animal id): 108 | – | 2 (≈ 5.58 µM)
isolate (source animal id): 111 | 2 (≈ 5.58 µM) | –
isolate (source animal id): 112 | – | > 8
isolate (source animal id): 113 | – | > 8
isolate (source animal id): 121 | – | 2 (≈ 5.58 µM)
isolate (source animal id): 122 | > 8 | 2 (≈ 5.58 µM)
isolate (source animal id): 123 | 2 (≈ 5.58 µM) | > 8
isolate (source animal id): 126 | – | > 8
isolate (source animal id): 133 | 2 (≈ 5.58 µM) | > 8
isolate (source animal id): 135 | – | > 8
isolate (source animal id): 138 | – | > 8
isolate (source animal id): 141 | – | > 8
isolate (source animal id): 142 | – | 2 (≈ 5.58 µM)
isolate (source animal id): 145 | – | > 8
isolate (source animal id): 149 | – | 0.5 (≈ 1.4 µM)
isolate (source animal id): 151 | – | 0.5 (≈ 1.4 µM)
isolate (source animal id): 152 | – | 2 (≈ 5.58 µM)
isolate (source animal id): 154 | – | 0.5 (≈ 1.4 µM)
isolate (source animal id): 158 | 2 (≈ 5.58 µM) | –
isolate (source animal id): 159 | – | > 8
isolate (source animal id): 162 | – | > 8
isolate (source animal id): 168 | 2 (≈ 5.58 µM) | –
isolate (source animal id): 169 | 2 (≈ 5.58 µM) | –
isolate (source animal id): 170 | – | > 8
isolate (source animal id): 171 | 4 (≈ 11.2 µM) | 1 (≈ 2.79 µM)
isolate (source animal id): 172 | – | > 8
isolate (source animal id): 173 | – | 1 (≈ 2.79 µM)
isolate (source animal id): 175 | 4 (≈ 11.2 µM) | –
isolate (source animal id): 177 | 4 (≈ 11.2 µM) | –
isolate (source animal id): 179 | – | > 8
isolate (source animal id): 180 | – | > 8
isolate (source animal id): 181 | 2 (≈ 5.58 µM) | –
isolate (source animal id): 182 | 2 (≈ 5.58 µM) | –
isolate (source animal id): 183 | 2 (≈ 5.58 µM) | > 8
isolate (source animal id): 186 | – | > 8
isolate (source animal id): 187 | 2 (≈ 5.58 µM) | > 8
isolate (source animal id): 188 | – | > 8
isolate (source animal id): 190 | 2 (≈ 5.58 µM) | 1 (≈ 2.79 µM)
isolate (source animal id): 191 | – | > 8
isolate (source animal id): 192 | – | 1 (≈ 2.79 µM)
isolate (source animal id): 194 | 2 (≈ 5.58 µM) | –
isolate (source animal id): 195 | 2 (≈ 5.58 µM) | –
isolate (source animal id): 197 | 2 (≈ 5.58 µM) | –
isolate (source animal id): 201 | – | > 8
isolate (source animal id): 202 | – | 1 (≈ 2.79 µM)
isolate (source animal id): 209 | – | 1 (≈ 2.79 µM)
isolate (source animal id): 211 | 2 (≈ 5.58 µM) | > 8
isolate (source animal id): 214 | 2 (≈ 5.58 µM) | –
isolate (source animal id): 220 | – | > 8
isolate (source animal id): 221 | – | > 8
isolate (source animal id): 222 | 2 (≈ 5.58 µM) | –
isolate (source animal id): 223 | 2 (≈ 5.58 µM) | > 8
isolate (source animal id): 228 | 2 (≈ 5.58 µM) | –
isolate (source animal id): 230 | 2 (≈ 5.58 µM) | –
isolate (source animal id): 233 | – | 2 (≈ 5.58 µM)
isolate (source animal id): 235 | 2 (≈ 5.58 µM) | –
isolate (source animal id): 236 | 2 (≈ 5.58 µM) | –
isolate (source animal id): 237 | – | 1 (≈ 2.79 µM)
isolate (source animal id): 239 | 2 (≈ 5.58 µM) | –
isolate (source animal id): 241 | 2 (≈ 5.58 µM) | 2 (≈ 5.58 µM)
isolate (source animal id): 244 | 2 (≈ 5.58 µM) | –
isolate (source animal id): 246 | 2 (≈ 5.58 µM) | –
isolate (source animal id): 247 | 4 (≈ 11.2 µM) | –
isolate (source animal id): 250 | 2 (≈ 5.58 µM) | –
isolate (source animal id): 252 | 4 (≈ 11.2 µM) | 2 (≈ 5.58 µM)
isolate (source animal id): 253 | – | 2 (≈ 5.58 µM)
isolate (source animal id): 259 | – | > 8
isolate (source animal id): 260 | – | 2 (≈ 5.58 µM)
isolate (source animal id): 262 | – | 2 (≈ 5.58 µM)
isolate (source animal id): 268 | 2 (≈ 5.58 µM) | –
isolate (source animal id): 282 | 1 (≈ 2.79 µM) | > 8
isolate (source animal id): 285 | 4 (≈ 11.2 µM) | –
isolate (source animal id): 287 | – | 2 (≈ 5.58 µM)
isolate (source animal id): 288 | – | 0.5 (≈ 1.4 µM)
isolate (source animal id): 289 | 2 (≈ 5.58 µM) | –
isolate (source animal id): 290 | 2 (≈ 5.58 µM) | –
isolate (source animal id): 291 | – | 0.5 (≈ 1.4 µM)
isolate (source animal id): 293 | – | 2 (≈ 5.58 µM)
isolate (source animal id): 296 | 2 (≈ 5.58 µM) | –
isolate (source animal id): 298 | 2 (≈ 5.58 µM) | 8 (≈ 22.3 µM)
isolate (source animal id): 299 | – | > 8
isolate (source animal id): 300 | – | 1 (≈ 2.79 µM)
isolate (source animal id): 301 | 2 (≈ 5.58 µM) | –
isolate (source animal id): 302 | – | > 8
isolate (source animal id): 304 | – | 8 (≈ 22.3 µM)
isolate (source animal id): 306 | – | 0.5 (≈ 1.4 µM)
isolate (source animal id): 308 | – | 0.5 (≈ 1.4 µM)
isolate (source animal id): 309 | – | 0.5 (≈ 1.4 µM)
isolate (source animal id): 310 | 4 (≈ 11.2 µM) | –
isolate (source animal id): 313 | – | 2 (≈ 5.58 µM)
isolate (source animal id): 318 | – | 1 (≈ 2.79 µM)
isolate (source animal id): 320 | 1 (≈ 2.79 µM) | 1 (≈ 2.79 µM)
isolate (source animal id): 321 | – | 2 (≈ 5.58 µM)
isolate (source animal id): 323 | – | > 8
isolate (source animal id): 324 | – | 2 (≈ 5.58 µM)
isolate (source animal id): 326 | – | 2 (≈ 5.58 µM)
isolate (source animal id): 328 | – | 2 (≈ 5.58 µM)
isolate (source animal id): 329 | – | 2 (≈ 5.58 µM)
isolate (source animal id): 331 | 2 (≈ 5.58 µM) | –
isolate (source animal id): 333 | 2 (≈ 5.58 µM) | 2 (≈ 5.58 µM)
isolate (source animal id): 335 | – | 2 (≈ 5.58 µM)
isolate (source animal id): 338 | – | 2 (≈ 5.58 µM)
isolate (source animal id): 341 | > 8 | –

— the supplement of paper PMC8612539
